What was measured:
MMP1 = assay: Real-time PCR of MMP1 gene expression in skin equivalent models; format: cell-based, human; conditions: 10 nM, 6 to 48 hours; tensional homeostatic model; to the equivalent level in tension-released skin equivalent
COL1A1 = assay: Real-time PCR of COL1A1 gene expression in skin equivalent models; format: cell-based, human; conditions: 6 to 48 hours
ELN = assay: Real-time PCR of ELN gene expression in skin equivalent models; format: cell-based, human; conditions: 10 nM, 6 to 48 hours; tensional homeostatic model; to the equivalent level in tension-released skin equivalent
[1] = test system: Tensional homeostatic skin equivalent; assay: Fluorescent staining of actin cytoskeleton and cell membrane (tissue orientation); format: cell-based, human; conditions: 10 nM, to level approximately equivalent to tension-released model
COL1A2 = assay: Real-time PCR of COL1A2 gene expression in skin equivalent models; format: cell-based, human; conditions: 10 nM, 6 to 48 hours; tensional homeostatic model; to the equivalent level in tension-released skin equivalent
type I collagen = assay: Immunohistochemical staining of type I collagen in skin equivalent; format: cell-based, human
FBN1 = assay: Real-time PCR of FBN1 gene expression in skin equivalent models; format: cell-based, human; conditions: 10 nM, 6 to 48 hours; tensional homeostatic model; to the equivalent level in tension-released skin equivalent
ITGA2 = assay: Immunohistochemical staining of ITGA2 in skin equivalent models; format: cell-based, human; conditions: 10 nM, 6 to 48 hours; tensional homeostatic model; to levels approximately equivalent to tension-released model
MRTFA [2] = assay: Image analysis of nuclear import rates of MRTFA; format: cell-based, human; conditions: 10 nM, 6 to 48 hours; image analysis of immunohistochemical staining
MRTFA [3] = assay: Immunohistochemical staining of MRTFA in skin equivalent models; format: cell-based, human; conditions: 10 nM, 6 to 48 hours; tensional homeostatic model; to levels approximately equivalent to tension-released model
αSMA = assay: Immunohistochemical staining of αSMA in skin equivalent models; format: cell-based, human; conditions: 10 nM, 6 to 48 hours; tensional homeostatic model; to levels approximately equivalent to tension-released model
MRTFA [4] = assay: Real-time PCR of MRTFA gene expression in skin equivalent models; format: cell-based, human; conditions: 10 μM, 6 to 48 hours; tensional homeostatic skin equivalent model (confirmed only in this model)
HAS3 = assay: Real-time PCR of HAS3 gene expression in skin equivalent models; conditions: 10 μM

C[C@@H](N)[C@H]1CC[C@H](C(=O)Nc2ccncc2)CC1 [Y27632]
gene expression of MMP1 (MMP1): significantly increased
gene expression of COL1A1 (COL1A1; 10 nM, tensional homeostatic model, to the equivalent level in tension-released skin equivalent): significantly inhibited
gene expression of ELN (ELN): significantly inhibited
orientations of the cytoskeletons, cell membranes, and nuclei in the tension direction [1]: reduced the orientations
gene expression of COL1A2 (COL1A2): significantly inhibited
expression level of type I collagen (collagen fiber formation) (type I collagen; 10 nM, Tensional homeostatic skin equivalent, to level approximately equivalent to tension-released model): reduced
gene expression of FBN1 (FBN1): significantly inhibited
expression level of ITGA2 (ITGA2): reduces the expression levels
nuclear import rates of MRTFA (MRTFA [2]): significantly reduced
expression level of MRTFA (MRTFA [3]): reduces the expression levels
expression level of αSMA (αSMA): reduces the expression levels

CC1=C(/C=C/C(C)=C/C=C/C(C)=C/C(=O)O)C(C)(C)CCC1 [ATRA, all-trans retinoic acid]
COL1A1 gene expression (COL1A1; 10 μM, Tensional homeostatic skin equivalent vs control group (confirmed only in this model)): significant promotion of gene expression
MRTFA gene expression (MRTFA [4]): significant increase
expression of type I collagen (collagen fiber formation) (type I collagen; 10 μM, Tensional homeostatic skin model, vs control group): increased
HAS3 gene expression (HAS3; 6 to 48 hours, each skin equivalent model, compared with all the control groups): significant promotion of gene expression
ratio of the HAS3 expression promotion (HAS3; Tensional homeostatic skin equivalent compared with the other models): highest value

From patent publication US12669496B2, “Method for evaluating and/or screening a control agent for tissue morphology and/or tissue function” (ROHTO PHARMACEUTICAL CO., LTD., priority 2020, dated 2026)
